target: T1, mono-acyl glycerol lipase (MAGL) (Homo sapiens, UniProt Q99685); test: In vitro inhibition of mono-acyl glycerol lipase (Monoacylglycerol Lipase Inhibitor Screening Assay Kit, Cayman Chemical; colorimetric); assay type: biochemical; details: human recombinant enzyme; 5 min pre-incubation at room temperature (20 °C); substrate 4-nitrophenylacetate (236 µM), 30 min; absorbance at 412 nm; read-out: IC50 against MAGL
T1 construct: purchased Cayman Chemical
T1 sequence (Q99685 1-303): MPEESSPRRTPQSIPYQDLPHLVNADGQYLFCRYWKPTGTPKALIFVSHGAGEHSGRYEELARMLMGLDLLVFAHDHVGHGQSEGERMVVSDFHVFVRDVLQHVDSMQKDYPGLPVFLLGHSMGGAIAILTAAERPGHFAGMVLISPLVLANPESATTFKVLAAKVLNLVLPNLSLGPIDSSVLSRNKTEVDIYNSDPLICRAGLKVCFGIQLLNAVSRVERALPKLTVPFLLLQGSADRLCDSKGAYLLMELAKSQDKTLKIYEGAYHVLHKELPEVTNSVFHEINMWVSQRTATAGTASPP
Method: The ability of the compounds of the present invention to inhibit mono-acyl glycerol lipase (MAGL) was estimated using their IC50 value. MALG inhibition was measured using the Monoacylglycerol Lipase Inhibitor Screening Assay Kit (Cayman Chemical, USA). Briefly, in 96-well plate, samples and human recombinant enzyme were incubated for five minutes at room temperature (20 °C). After that, an ethanolic solution of 4-nitrophenylacetate (236 µM), as colorimetric substrate, was added to the wells and plates were incubated for 30 minutes at room temperature. Finally, absorbance was measured at 412 nm. JZL195 {(4-nitrophenyl)-4-[(3-phenoxyphenyl)methyl]piperazine-1-carboxylate, 5 µM} was used as a positive control. Background obtained was subtracted in each experimental value and the percentage of inhibition was established with the formula (Absorbance 100% Activity - Absorbance of the sample)/Absorbance 100% Activity. Table 1: MAGL inhibition (IC50) for compounds of the invention

In order of falling IC50:
1. CCCC1=CC(=O)C2=C(OC(C)(CCC=C(C)C)C=C2)C1=O (stereo not drawn) [(C), 2-methyl-2-(4-methylpent-3-enyl)-7-propyl-chromene-5,8-dione]  6.64 µM
2. CCCCCC1=CC(=O)C2=C(OC(C)(C)C=C2)C1=O [(B), 2,2-dimethyl-7-pentyl-chromene-5,8-dione]  4.5 µM
3. CCCCCC1=CC(=O)C2=C(OC(C)(CCC=C(C)C)C=C2)C1=O (stereo not drawn) [(A), 2-methyl-2-(4-methylpent-3-enyl)-7-pentyl-chromene-5,8-dione]  4.44 µM
